Molecular target: T1, NO synthase (Rattus norvegicus, UniProt P29476)
T1 construct: the supernatant was then removed by decantation and frozen in portions at −80° C; from tissue; host or cells: rat cerebellum, 20,000 g supernatant of homogenate
Assay: HTS-NOS assay (NOS assay): conversion of radioactive arginine, cation-exchanger filter plate
Type: biochemical
Conditions: for inhibition at 10 µM: read-out: HTS-NOS assay: % inhibition (10 μM)
Method: This assay enables the percentage inhibition of NO synthase by an active ingredient to be determined by measuring the NOS activity under the action of the active ingredient. NO synthase is mixed together with radioactively labelled arginine and the active ingredient under suitable conditions. After terminating the NO-forming reaction at a given time, the amount of unconverted arginine is determined directly or indirectly. A comparison of that amount with the amount of arginine that remains in a mixture of NOS and arginine without the addition of active ingredient and under otherwise identical conditions gives the % inhibition of NO synthase by the tested active ingredient. This assay can be carried out as follows:
(a) incubation of NO synthase with labelled arginine as substrate in a reaction vessel,
(b) separation of the labelled arginine from the labelled citrulline optionally formed as a product of the enzymatic reaction, at a time at which the citrulline concentration is increasing,
(c) measurement of the amount of arginine remaining in each case.
Separation is carried out over a filter plate membrane.
This NOS assay is suitable especially for “high throughput screening” (HTS) on microtitre plates (MTP).
In this HTS-NOS assay, radioactive arginine is used as substrate. The assay volume can be chosen in the range from 25 μl to 250 μl, according to the type of microtitre plate (MTP). Depending on the source of the enzyme used, co-factors and co-enzymes are added. Incubation of the batches on this microtitre plate (assay MTP) according to step (a) is carried out at room temperature and is for 5 to 60 minutes according to the enzyme activity used (units). At the end of the incubation (step (a)), the plate is placed into a cell harvester which is equipped with a MTP having a cation-exchanger membrane as the filter base (filter MTP). All batches of the assay MTP are transferred to the filter MTP and filtered off with suction over a cation-exchanger filter plate, a paper filter charged with phosphate groups. The filter MTP is then washed with buffer or water. By means of this procedure, the arginine substrate that remains is bound to the cation exchanger, while the enzymatically formed radioactive citrulline is washed out quantitatively. After drying the filter MTP and adding scintillation liquid, the bound arginine can be counted using a scintillation counter. An uninhibited NOS reaction is reflected in low radioactivity. An inhibited enzyme reaction means that the radioactive arginine has not been converted. This means that a high level of radioactivity is found on the filter.
Rat cerebella were used as the starting tissue. The animals were anaesthetized and sacrificed, the brain tissue, the cerebellum, was removed by dissection, 1 ml of enzyme preparation buffer was added per rat cerebellum (4° C.), and disintegration was carried out using a Polytron homogeniser for 1 minute at 6000 rpm, followed by centrifugation for 15 minutes at 4° C. and 20,000 g; the supernatant was then removed by decantation and frozen in portions at −80° C. (the precipitate was discarded).
96-well MTP having a well capacity of <250 μl were used.
Pipetting sequence: see Table 1.
When the pipetting operation was complete, a cover was placed on the MTP (assay MTP), and incubation was at 25° C. (room temperature (RT)) for from 5 to 60 minutes, according to the amount and activity of the enzyme used.
The contents of the assay MTP were then transferred with the aid of a 96-well cell harvester to a 96-well cation exchanger MTP (filter MTP) and filtered off with suction. This was followed by washing once with […] of H2O (from a bath).
The plate was then dried for 1 hour at 60° C. in a drying cabinet. The underside of the filter MTP was then accurately sealed from beneath with a “back seal”. 35 μl of scintillation fluid per well were then added by means of a pipette. The upper side of the plate was also sealed with a “top seal”. […]

Compound | inhibition at 10 µM [%] | HTS-NOS assay: % inhibition (10 μM) [%]
CC(=O)N(c1c(-c2ccccn2)nc2cc(C)ccn12)C1CCCCC1 [Example 263, N-cyclohexyl-N-(7-methyl-2-pyridin-2-yl-imidazo[1,2-a]pyridin-3-yl)-acetamide] | 64 | 
Cc1cccn2c(NC3CCCCC3)c(-c3ccncc3)nc12 [Example 111, Cyclohexyl-(8-methyl-2-pyridin-4-yl-imidazo[1,2-a]pyridin-3-yl)-amine] | 52 | 
CC(=O)N(c1c(C)cccc1C)c1c(-c2ccc(C(=O)O)s2)nc2ccc(C)cn12 [Example 225, 5-{3-[acetyl-(2,6-dimethyl-phenyl)-amino]-6-methyl-imidazo[1,2-a]pyridin-2-yl}-thiophene-2-carboxylic acid] | 55 | 
Cc1ccn2c(NC3CCCCC3)c(-c3ccco3)nc2c1 [Example 141, Cyclohexyl-(2-furan-2-yl-7-methyl-imidazo[1,2-a]pyridin-3-yl)-amine] | 64 | 
Cc1ccc2nc(-c3ccc(C(=O)O)s3)c(NC(C)(C)C)n2c1 [Example 127, 5-(3-Tert-butylamino-6-methyl-imidazo[1,2-a]pyridin-2-yl)-thiophene-2-carboxylic acid] | 52 | 
Cc1ccn2c(NC3CCCCC3)c(-c3ccccn3)nc2c1 [Example 140, Cyclohexyl-(7-methyl-2-pyridin-2-yl-imidazo[1,2-a]pyridin-3-yl)-amine] | 55 | 
[C-]#[N+]CCCCCCNc1c(-c2cccnc2)nc2cc(C)cc(C)n12 [Example 59, [6-(5,7-Dimethyl-2-pyridin-3-yl-imidazo[1,2-a]pyridin-3-ylamino)-hexyl]-methylidyne-ammonium] |  | 57
CC(=O)N(c1c(-c2ccc(C3OCCO3)o2)nc2cccc(C)n12)C1CCCCC1 [Example 264, N-cyclohexyl-N-[2-(5-[1,3]dioxolan-2-yl-furan-2-yl)-5-methyl-imidazo[1,2-a]-pyridin-3-yl]-acetamide] | 50 | 
Cc1cc(C)n2c(NC(C)(C)CC(C)(C)C)c(-c3ccc(CO)o3)nc2c1 [Example 62, {5-[5,7-Dimethyl-3-(1,1,3,3-tetramethyl-butylamino)-imidazo[1,2-a]pyridin-2-yl]-furan-2-yl}-methanol] | 55 | 
Cc1ccn2c(Nc3c(C)cccc3C)c(-c3ccccc3F)nc2c1 [Example 43, (2,6-Dimethyl-phenyl)-[2-(2-fluoro-phenyl)-7-methyl-imidazo[1,2-a]pyridin-3-yl]-amine] | 71 | 
CC(=O)N(c1c(-c2cccc(Cl)c2Cl)nc2ccccn12)C1CCCCC1 [Example 273, N-cyclohexyl-N-[2-(2,3-dichloro-phenyl)-imidazo[1,2-a]pyridin-3-yl]-acetamide] | 55 | 
CC(=O)N(c1c(-c2ccccc2C(F)(F)F)nc2ccccn12)C(C)(C)C [Example 245, N-tert-butyl-N-[2-(2-trifluorO-methyl-phenyl)-imidazo[1,2-a]pyridin-3-yl]-acetamide] |  | 56
Cc1cccn2c(NC(C)(C)C)c(-c3ccccn3)nc12 [Example 120, Tert-butyl-(8-methyl-2-pyridin-2-yl-imidazo[1,2-a]pyridin-3-yl)-amine] | 56 | 
COc1ccc(-c2nc3cc(C)ccn3c2Nc2c(C)cccc2C)cc1OC [Example 54, [2-(3,4-Dimethoxy-phenyl)-7-methyl-imidazo[1,2-a]pyridin-3-yl]-(2,6-dimethyl-phenyl)-amine] | 64 | 
CC(=O)N(c1c(-c2ccco2)nc2cc(C)cc(C)n12)C(C)(C)C [Example 145, N-tert-butyl-N-(2-furan-2-yl-5,7-dimethyl-imidazo[1,2-a]pyridin-3-yl)-acetamide] | 66 | 
Cc1cc(C)n2c(NC(C)(C)C)c(-c3ccco3)nc2c1 [Example 25, Tert-butyl-(2-furan-2-yl-5,7-dimethyl-imidazo[1,2-a]pyridin-3-yl)-amine] | 60 | 
CC(=O)N(c1c(C)cccc1C)c1c(-c2ccccc2C)nc2cc(C)cc(C)n12 [Example 148, N-(2,6-dimethyl-phenyl)-N-(5,7-dimethyl-2-o-tolyl-imidazo[1,2-a]pyridin-3-yl)-acetamide] | 57 | 
Cc1cc(C)n2c(NC(C)(C)CC(C)(C)C)c(-c3ccco3)nc2c1 [Example 8, (2-Furan-2-yl-5,7-dimethyl-imidazo[1,2-a]-pyridin-3-yl)-(1,1,3,3-tetramethyl-butyl)-amine] | 52 | 
Cc1ccn2c(NC(C)(C)CC(C)(C)C)c(-c3ccccc3C)nc2c1 [Example 46, (7-Methyl-2-o-tolyl-imidazo[1,2-a]pyridin-3-yl)-(1,1,3,3-tetramethyl-butyl)-amine] | 59 | 
CC(=O)N(c1c(C)cccc1C)c1c(-c2sccc2Br)nc2cc(C)cc(C)n12 [Example 156, N-[2-(3-bromo-thiophen-2-yl)-5,7-dimethyl-imidazo[1,2-a]pyridin-3-yl]-N-(2,6-dimethyl-phenyl)-acetamide] | 74 | 
CC(=O)N(c1c(-c2sccc2Br)nc2ccccn12)C1CCCCC1 [Example 161, N-[2-(3-bromo-thiophen-2-yl)-imidazo[1,2-a]pyridin-3-yl]-N-cyclohexyl-acetamide] | 51 | 
CCCCNc1c(-c2ccc(C(=O)O)s2)nc2cnccn12 [Example 113, 5-(3-Butylamino-imidazo[1,2-a]pyrazin-2-yl)-thiophene-2-carboxylic acid] | 54 | 
COC(=O)CNc1c(C2CCCCC2)nc2cc(C)cc(C)n12 [Example 142, (2-Cyclohexyl-5,7-dimethyl-imidazo[1,2-a]-pyridin-3-ylamino)-acetic acid methyl ester] | 59 | 
CC(=O)N(c1c(-c2ccc(C(=O)O)s2)nc2cccc(C)n12)C1CCCCC1 [Example 234, 5-[3-(acetyl-cyclohexyl-amino)-5-methyl-imidazo[1,2-a]pyridin-2-yl]-thiophene-2-carboxylic acid] | 58 | 
CC(=O)N(c1c(-c2ccncc2)nc2cc(C)cc(C)n12)C(C)(C)CC(C)(C)C [Example 146, N-(5,7-dimethyl-2-pyridin-4-yl-imidazo[1,2-a]pyridin-3-yl)-N-(1,1,3,3-tetramethyl-butyl)-acetamide] | 59 | 
CC(=O)N(c1c(-c2c(F)cccc2Cl)nc2cccc(C)n12)C1CCCCC1 [Example 254, N-[2-(2-chloro-6-fluoro-phenyl)-5-methyl-imidazo[1,2-a]pyridin-3-yl]-N-cyclohexyl-acetamide] | 51 | 
Cc1ccc(-c2nc3c(C)cccn3c2NC(C)(C)CC(C)(C)C)cc1 [Example 133, (8-Methyl-2-p-tolyl-imidazo[1,2-a]pyridin-3-yl)-(1,1,3,3-tetramethyl-butyl)-amine] | 52 | 
Cc1cc(C)n2c(NC(C)(C)CC(C)(C)C)c(C3CCCCC3)nc2c1 [Example 44, (2-Cyclohexyl-5,7-dimethyl-imidazo[1,2-a]-pyridin-3-yl)-(1,1,3,3-tetramethyl-butyl)-amine] | 71 | 
CCCCNc1c(-c2ccccc2OC)nc2ccc(C)cn12 [Example 138, Butyl-[2-(2-methoxy-phenyl)-6-methyl-imidazo[1,2-a]pyridin-3-yl]-amine] | 52 | 
